Active and inactive are the calls of the source. No rule for the calls is given here.
Tested on: MAGI host cells cytotoxicity, % cell control, 5% serum
Test: cytotoxicity in MAGI host cells, dose response, cytotoxicity control for HIV-1 antiviral project, 5% and 10% serum, set 2 (AID 2812)
[1] = MAGI host cells cytotoxicity, % cell control, 10% serum

Row | SMILES | TC50 | TC50 [1]
1 | CC(C)S(=O)(=O)C1=NSC2=NC(=O)/C(=C\c3ccc(-c4ccccc4)o3)C(=N)N21 | 74 µM | > 100 µM
2 | O=C(O)c1cc(NN=Cc2ccc(-c3ccccc3)cc2)ccc1Cl | > 100 µM (inactive) | > 100 µM
3 | COc1cc(C=NNc2ccc(Cl)c(C(=O)O)c2)ccc1OC(=O)c1ccccc1F | > 100 µM (inactive) | > 100 µM
4 | Cc1cc(C)cc(-n2cccc2/C=C2/C(=N)N3C(=NC2=O)SN=C3S(C)(=O)=O)c1 | 79.5 µM | > 100 µM
5 | O=C(O)c1ccccc1C(=O)N(Cc1cccc(Oc2ccc(Cl)cc2)c1)[C@H]1CCCc2ccccc21 | 56.4 µM | > 100 µM
6 | CC1(C)CC(=O)C2=C(C1)c1c(ccc3ccccc13)NC2c1cc([N+](=O)[O-])cc([N+](=O)[O-])c1O (stereo not given) | 58.6 µM | > 100 µM
7 | COc1cc(C=NNc2ccc(Cl)c(C(=O)O)c2)ccc1OC(=O)c1ccc(F)cc1 | > 100 µM (inactive) | > 100 µM
8 | CS(=O)(=O)C1=NSC2=NC(=O)/C(=C\c3ccc(OS(=O)(=O)c4ccccc4)cc3)C(=N)N21 | > 100 µM (inactive) | > 100 µM
9 | O=c1c(=Cc2cc([N+](=O)[O-])cc([N+](=O)[O-])c2O)sc2nc3ccccc3n12 | > 100 µM (inactive) | > 100 µM
10 | Cc1ccc(S(=O)(=O)Oc2ccc(/C=C3/C(=N)N4C(=NC3=O)SN=C4S(C)(=O)=O)cc2)cc1 | > 100 µM (inactive) | > 100 µM
11 | CS(=O)(=O)C1=NSC2=NC(=O)/C(=C\c3cccn3-c3ccc(Cl)cc3)C(=N)N21 | > 100 µM (inactive) | > 100 µM
12 | Cc1ccc(-n2c(O)c(C=Nc3ccccc3-c3n[nH]c(=S)[nH]c3=O)c3ccccc3c2=O)c(C)c1 | – | > 100 µM
13 | Cc1ccc(-n2cccc2/C=C2/C(=N)N3C(=NC2=O)SN=C3S(C)(=O)=O)cc1Cl | > 100 µM (inactive) | > 100 µM
14 | CCS(=O)(=O)C1=NSC2=NC(=O)/C(=C\c3ccc(OS(=O)(=O)c4ccccc4)cc3)C(=N)N21 | > 100 µM (inactive) | > 100 µM
15 | COc1ccc(C(=O)Oc2ccc(C=NNc3ccc(Cl)c(C(=O)O)c3)cc2OC)cc1 | > 100 µM (inactive) | > 100 µM
16 | CC(C)S(=O)(=O)C1=NSC2=NC(=O)/C(=C\c3ccc(-c4cccc(C(=O)O)c4)o3)C(=N)N21 | > 100 µM (inactive) | > 100 µM
17 | COc1ccccc1NS(=O)(=O)c1cccc(-n2c(O)c(C=Nc3ccccc3C(=O)O)c3ccccc3c2=O)c1 | 93.7 µM | > 100 µM
18 | COc1ccc(OC)c(N2C(=O)/C(=C/c3ccco3)C(=O)NC2=S)c1 | – | > 100 µM
19 | O=C1NC(=S)N(c2ccc(F)cc2)C(=O)/C1=C/c1ccco1 | – | > 100 µM
